# Like-named read-outs stand apart in the source and are kept apart here. Marks after values point to notes of the source that are not given here.
# Columns and labels:
# [1] = test system: postmenopausal women with osteoporosis; conditions: in vivo
# [2] = test system: postmenopausal women with osteoporosis; conditions: in vivo; remark: listed apart in the source
# Experimental: (§2) Safety evaluations performed in the ACTIVE trial included physical examinations, vital signs, 12-lead electrocardiograms, or ECGs, clinical laboratory tests and monitoring, and recording of adverse events. Specific safety assessments included pre-dose and post-dose (four hours) determination of serum calcium, determination of creatinine clearance, post-dose ECG assessments at selected visits, and assessments of postural hypotension (60 minutes post-dose) at selected clinic visits.
# (§3) The ACTIVE trial also evaluated several potential safety measures, including blood calcium levels, orthostatic hypotension, nausea, dizziness, and injection-site reactions.
# [3] = test system: postmenopausal women with osteoporosis; experiment: ACTIVE trial: adverse events; conditions: 18-month ACTIVE trial
# Experimental: as §2, §3
# [4] = test system: postmenopausal women with osteoporosis; experiment: ACTIVE phase 3 trial: fracture rates and fracture risk over 18 months; assay type: in vivo, human
# Experimental: The ACTIVE phase 3 fracture prevention trial was conducted for abaloparatide in postmenopausal women with osteoporosis who were otherwise healthy. The enrolled subjects were treated with 80 micrograms (μg) of abaloparatide, a matching placebo, or the approved daily dose of 20 μg of teriparatide for 18 months. The ACTIVE trial evaluated fracture rates, fracture risks, BMD, and bone turnover biomarkers (e.g., CTX and P1NP) in all patient groups.
# Fracture risk reduction and hazard ratio (HR) were derived from Kaplan-Meier (KM) curve.
# The ACTIVE pivotal Phase 3 fracture prevention trial for the PTHrP analogue abaloparatide, Study BA058-05-003 (see ClinicalTrials.gov), was a randomized, double-blind, placebo-controlled trial in postmenopausal osteoporotic women randomized to receive daily doses of one of the following for 18 months: 80 micrograms (μg) of abaloparatide; a matching placebo; or the approved daily dose of 20 μg of teriparatide. Treatment with abaloparatide at a daily dose of 80 μg or placebo remained blinded to all parties throughout the study. Teriparatide used was a proprietary prefilled drug and device combination that could not be repackaged. Therefore, its identity could not be blinded to treating physicians and patients once use began. Study medication was self-administered daily by subcutaneous injection for a maximum of 18 months. All enrolled patients also received calcium and vitamin D supplementation from the time of enrollment until the end of the treatment period. It was recommended to patients that they also continue these supplements through the one-month follow-up period.
# The study enrolled otherwise healthy ambulatory women aged 49 to 86 (inclusive) who had been postmenopausal for at least five years, met the study entry criteria, and had provided written informed consent. […] All patients were to be in good general health as determined by medical history, physical examination (including vital signs), and clinical laboratory testing. This study population contained a patient population reflective of the type of severe osteoporosis patients that specialists would be expected to treat in their practices.
# (§1) As set forth in the ACTIVE protocol, the primary efficacy endpoint was the number of patients treated with abaloparatide with incident vertebral fractures at the end of treatment as compared to those who received placebo. The pre-specified secondary efficacy parameters included, among other endpoints, reduction in the incidence/risk of non-vertebral fractures; changes in BMD of the spine, hip, and femoral neck from baseline to end of treatment as assessed by DXA and as compared to teriparatide; and the number of hypercalcemic events in abaloparatide treated patients when compared to teriparatide at end of treatment.
# [5] = test system: postmenopausal women with osteoporosis; experiment: Phase 2 dose-finding trial: 24-week BMD by DXA; assay type: in vivo, human; conditions: 24 weeks; 20 μg daily SC
# Description: Healthy postmenopausal women between the ages of 55 to 85 (based on a 5-year history of amenorrhea and an elevated serum level of FSH) were enrolled in the study if they met one of the following the following definitions of osteoporosis: • 1) DXA-derived BMD T-score≤−2.5 at the lumbar spine or femoral neck or total hip. • 2) DXA-derived BMD T-score ≤−2.0 with a history of a prior low trauma forearm, humerus, vertebral, sacral, pelvic, hip, femoral, or tibial fracture within the past five years. • 3) DXA-derived BMD T-score ≤−2.0 with an additional osteoporosis risk factor such as age >65 years or strong maternal history of osteoporosis (defined as a fracture related to osteoporosis or osteoporosis itself determined by BMD criteria).
# Dual X-ray absorptiometry: DXA scans were obtained at each local site and then sent to a central imaging reader (BioClinica Inc. Newton, PA) where they underwent a quality control review and then analyzed according to each manufacturers guidelines. Scans performed during the treatment period on the same instrument used for the baseline scan were acquired. Each study site performed Instrument Quality Control over time (instrument standardization and phantom calibration) that was reviewed by the central reader.
# [6] = test system: postmenopausal women with osteoporosis; experiment: Phase 2 trial 24-week extension (48 weeks): BMD and tolerability; conditions: 20 μg daily SC
# [7] = test system: postmenopausal women with osteoporosis; experiment: ACTIVE trial: BMD of lumbar spine, total hip, femoral neck by DXA; assay type: in vivo, human
# Experimental: BMD and bone turnover biomarkers (CTX and P1NP) were also evaluated in all patient groups to compare the effects of abaloparatide versus teriparatide.
# as §1
# Comparative analyses of abaloparatide versus teriparatide were completed on the following BMD secondary endpoints using a Mixed-Effect Model for Repeated Measures (MMRM) method, shown in Table 4 below:
# Comparative analyses of the PTHrP analogues abaloparatide and teriparatide were completed on the following BMD secondary endpoints using an ANCOVA approach, shown in Table 5 below: […]
# [8] = test system: postmenopausal women with osteoporosis; experiment: Phase 2 trial: safety, serum calcium, antibody formation; conditions: 24 weeks; 20 μg daily SC
smiles,measurement,setting,value
"CC[C@H](C)[C@H](NC(=O)[C@H](CO)NC(=O)[C@H](CCCCN)NC(=O)CNC(=O)[C@H](CCCCN)NC(=O)[C@H](CC(=O)O)NC(=O)[C@H](Cc1cnc[nH]1)NC(=O)[C@H](CC(C)C)NC(=O)[C@H](CC(C)C)NC(=O)[C@H](CCC(N)=O)NC(=O)[C@H](Cc1cnc[nH]1)NC(=O)[C@H](CCC(=O)O)NC(=O)[C@H](CO)NC(=O)[C@@H](NC(=O)[C@H](C)N)C(C)C)C(=O)N[C@@H](CCC(N)=O)C(=O)N[C@@H](CC(=O)O)C(=O)N[C@@H](CC(C)C)C(=O)N[C@@H](CCCNC(=N)N)C(=O)N[C@@H](CCCNC(=N)N)C(=O)N[C@@H](CCCNC(=N)N)C(=O)N[C@@H](CCC(=O)O)C(=O)N[C@@H](CC(C)C)C(=O)N[C@@H](CC(C)C)C(=O)N[C@@H](CCC(=O)O)C(=O)N[C@@H](CCCCN)C(=O)N[C@@H](CC(C)C)C(=O)N[C@@H](CC(C)C)C(=O)NC(C)(C)C(=O)N[C@@H](CCCCN)C(=O)N[C@@H](CC(C)C)C(=O)N[C@@H](Cc1cnc[nH]1)C(=O)N[C@H](C(=O)N[C@@H](C)C(N)=O)[C@@H](C)O [abaloparatide, [Glu^22,25, Leu^23,28,31, Aib^29, Lys^26,30]hpTHrP(1-34)NH2]",anti-abaloparatide antibody titer in positive patients,[1],≤ 1:20
same,AE: Arthralgia,[2],8.6%
same,AE: Back Pain,[2],8.5%
same,AE: Constipation,[2],4.5%
same,AE: Dizziness,[2],10.0%‡
same,AE: Headache,[2],7.5%
same,AE: Hypercalcemia (serum albumin-corrected calcium value ≥ 10.7 mg/dL),[2],3.41%^†
same,AE: Hypertension,[2],7.2%
same,AE: Nasopharyngitis,[2],5.8%
same,AE: Nausea,[2],8.3%‡
same,AE: Pain in extremity,[2],4.9%
same,AE: Palpitations,[2],5.1%‡
same,AE: Upper respiratory tract infection,[2],8.3%
same,AE: Urinary tract infection,[2],5.2%
same,AE: Influenza,[3],6.3%
"CC[C@H](C)[C@H](NC(=O)[C@H](CCC(=O)O)NC(=O)[C@H](CO)NC(=O)[C@@H](NC(=O)[C@@H](N)CO)C(C)C)C(=O)N[C@@H](CCC(N)=O)C(=O)N[C@@H](CC(C)C)C(=O)N[C@@H](CCSC)C(=O)N[C@@H](Cc1cnc[nH]1)C(=O)N[C@@H](CC(N)=O)C(=O)N[C@@H](CC(C)C)C(=O)NCC(=O)N[C@@H](CCCCN)C(=O)N[C@@H](Cc1cnc[nH]1)C(=O)N[C@@H](CC(C)C)C(=O)N[C@@H](CC(N)=O)C(=O)N[C@@H](CO)C(=O)N[C@@H](CCSC)C(=O)N[C@@H](CCC(=O)O)C(=O)N[C@@H](CCCN=C(N)N)C(=O)N[C@H](C(=O)N[C@@H](CCC(=O)O)C(=O)N[C@@H](Cc1c[nH]c2ccccc12)C(=O)N[C@@H](CC(C)C)C(=O)N[C@@H](CCCN=C(N)N)C(=O)N[C@@H](CCCCN)C(=O)N[C@@H](CCCCN)C(=O)N[C@@H](CC(C)C)C(=O)N[C@@H](CCC(N)=O)C(=O)N[C@@H](CC(=O)O)C(=O)N[C@H](C(=O)N[C@@H](Cc1cnc[nH]1)C(=O)N[C@@H](CC(N)=O)C(=O)N[C@@H](Cc1ccccc1)C(=O)O)C(C)C)C(C)C [teriparatide, hPTH(1-34)]","hazard ratio, incident clinical fractures, as compared to placebo",[4],0.71
same,"hazard ratio, non-vertebral fractures, as compared to placebo",[4],0.72
same,"fracture rate, non-vertebral fractures (rate given with hazard ratio)",[4]; placebo group 4.7%,3.3%
same,"fracture rate, incident clinical fractures (rate given with hazard ratio)",[4]; placebo group 8.3%,4.8%
same,femoral neck BMD increase (±SD),[5],1.1±4.6%
same,total hip BMD increase (±SD),[5],0.5±3.9%
same,femoral neck BMD increase,[6]; 48 weeks,2.2%
same,lumbar spine BMD increase,[6]; 48 weeks,8.6%
same,total hip BMD increase,[6]; 48 weeks,1.3%
same,treatment-related TEAEs,[6]; extension study,21%
same,"Mean Percent Change In BMD From Baseline (ANCOVA), Femoral Neck",[7]; 6 mo,0.80%*
same,"Mean Percent Change in BMD From Baseline (MMRM), Femoral Neck",[7]; 6 mo,0.87%*
same,"Mean Percent Change In BMD From Baseline (ANCOVA), Lumbar Spine",[7]; 12 mo,7.40%*
same,subjects with BMD increases of >3% at all three sites,[7]; 12 months,19.8%
same,subjects with BMD increases of >3% at all three sites,[7]; 18 months,32.0%
same,"subjects with increased BMD of >3% at all three sites (lumbar spine, total hip, femoral neck)",[7]; month 6,6.5%
same,AE: Arthralgia,[3],8.6%
same,AE: Back Pain,[3],7.2%‡
same,AE: Constipation,[3],4.2%
same,AE: Dizziness,[3],7.3%
same,AE: Headache,[3],6.2%
same,AE: Hypercalciuria,[3],12.5%‡
same,AE: Hypertension,[3],5.0%
same,AE: Influenza,[3],4.2%
same,AE: Nasopharyngitis,[3],6.5%
same,AE: Nausea,[3],5.1%‡
same,AE: Pain in extremity,[3],5.1%
same,AE: Palpitations,[3],1.6%‡
same,AE: Upper respiratory tract infection,[3],8.9%
same,AE: Urinary tract infection,[3],5.0%
same,incidence of dizziness,[8],4%

# Source: patent US20230321199A1, “USES OF PTHrP ANALOGUE IN REDUCING FRACTURE RISK” (Radius Health, Inc., priority 2015, published 2023)
